A short description of the series: Long term storage stability of purified Mitragynine. Particulars: stored at 2° C.-8° C. It is filed as physicochemical.

This passage reports Storage stability results from patent US20260272896A1, “ORAL D[…] OF MITRAGYNINE” (LUCKY 4U EXIMS, priority 2023, published 2026).

Consider `CC[C@@H]1CN2CCc3c([nH]c4cccc(OC)c34)[C@@H]2C[C@@H]1/C(=C\OC)C(=O)OC` [Mitragynine], for which the Storage stability entry is recorded as “stable for long term storage”.
